Assay results: patent EP0555681A1, “Use of a combination of potassium channel activators and sulfhydryl containing compounds for the manufacture of a medicament for the treatment of ischemia and myocarolial infarct” (E.R. SQUIBB & SONS, INC., priority 1992, dated 1993)
Like-named read-outs stand apart in the source and are kept apart here.

How the values were obtained:
Set-up in all cases: species or system Male Sprague-Dawley rats
[1] = system: isolated rat hearts; test: Time to contracture during global ischemia in isolated rat hearts, with isobolographic analysis of the combination; settings: read-out: EC₅₀ for percentage change in time to contracture
Description: (§1) anesthetized using 100 mg/kg sodium pentobarbital (i.p.). They were intubated and then treated with i.v. heparin (1000 U/kg). While mechanically ventilated, hearts were perfused in situ via retrograde cannulation of the aorta. The hearts were then excised and quickly moved to a Langendorff apparatus where they were perfused with Krebs-Henseleit bicarbonate buffer (112 mM sodium chloride, 25 mM sodium bicarbonate, 5 mM potassium chloride, 1.2 mM magnesium sulfate, 1 mM potassium diphosphate, 1.25 mM calcium chloride, 11.5 mM glucose and 2mM pyruvate bubbled with 95% oxygen - 5% carbon dioxide) at a constant perfusion pressure (75 mm Hg). A water-filled latex balloon, attached to a metal cannula, was inserted into the left ventricle and connected to a Statham pressure transducer for measurement of left ventricular pressure. The hearts were allowed to equilibrate for 15 minutes, at which time end diastolic pressure (EDP) was adjusted to 5 mm Hg and the balloon pressure was maintained for the duration of the experiment. Pre-ischemia or pre-drug function, heart rate and coronary flow (extracorporeal electromagnetic flow probe, Carolina Medical Electronics, King, N.C.) were then measured. Cardiac function was determined using double product of heart rate (HR) X left ventricular developed pressure (LVDP) divided by 1000. Cardiac temperature was maintained throughout the experiment by submerging the hearts in a heated chamber filled with 37°C buffer.
All hearts were retreated with vehicle or drug for 10 minutes before the onset of ischemia. All drugs were given only before ischemia. The hearts were subjected to 25 minutes of global ischemia and 30 minutes of reperfusion. At the end of the experiment, EDP and LDH release were measured and used as an index of severity of ischemia.
The effect of the combination of a potassium channel activator and a sulfhydryl containing compound was determined using a technique known as isobolographic analysis (R. J. Tallarida et al, "Minireview-Satistical Analysis of Drug-Drug and Site-Site Interactions with Isobolograms", Life Sciences, 45:947-961, 1989). This technique is commonly used to investigate the interaction between drugs.
Several specific concentration ratios (3:1, 12:1 and 30:1) of cromakalim to zofenopril respectively were tested and the effects of the combination determined. The concentration response curves for cromakalim and zofenopril were expressed as percentage increase in time to contracture from control. Time to contracture was measured as the time during ischemia for end diastolic pressure to increase by 5 mm Hg.
EC₅₀ for percentage change in time to contracture for cromakalim and zofenopril given alone or in the concentration ratios indicated were calculated.

[2] = system: isolated rat hearts; test: Global ischemia and reperfusion in isolated perfused (Langendorff) rat hearts: EDP, LDH release, double product; settings: 100 or 300 µM N-acetylcysteine; 30 minutes into reperfusion following 35 minutes of global ischemia (Fig. 3a, 3b)
[3] = system: isolated rat hearts; test: as above
Description: as §1, with “The hearts were then excised and quickly moved to a Langendorff apparatus where they were perfused with Krebs-Henseleit bicarbonate buffer (112 mM sodium chloride, 25 mM sodium bicarbonate, 5 mM potassium chloride, 1.2 mM magnesium sulfate, 1 mM potassium diphosphate, 1.25 mM calcium chloride, 11.5 mM glucose and 2mM pyruvate bubbled with 95% oxygen - 5% carbon dioxide) at a constant perfusion pressure (75 mm Hg).” left out, “buffer. All hearts were retreated with vehicle or drug for 10 minutes before the onset of ischemia. All drugs were given only before ischemia. The hearts were subjected to 25 minutes of global ischemia and 30 minutes of reperfusion. At the end of the experiment, EDP and LDH release were measured and used as an index of severity of ischemia.” for “buffer.”

[4] = given alone, time during ischemia for EDP to increase by 5 mm Hg
[5] = blocker (1 µM glyburide or 100 µM sodium 5-hydroxydecanoate) given with zofenopril prodrug (Fig. 1a)
[6] = blocker (1 µM glyburide or 100 µM sodium 5-hydroxydecanoate) given with zofenopril prodrug (Fig. 1b)

Compound: CC1(C)Oc2ccc(C#N)cc2C(N2CCCC2=O)C1O (racemic) [Cromakalim, (±)-6-cyano-3,4-dihydro-2,2-dimethyl-trans-4-(2-oxo-1-pyrrolidyl)-2H-benzo[6]-pyran-3-ol]
- EC50 ([1]; concentration ratio 3:1 cromakalim to zofenopril, cromakalim component): 5.15 µM
- EC50 ([1]; concentration ratio 12:1 cromakalim to zofenopril, cromakalim component): 5.96 µM
- EC50 ([1]; concentration ratio 30:1 cromakalim to zofenopril, cromakalim component): 9.3 µM
- EC50 [1, 4]: 39.7 µM

Compound: CC(=O)N[C@@H](CS)C(=O)O [N-acetyl-cysteine, N-acetylcysteine]
- protection of ischemic cardiac tissue (EDP and cumulative LDH release) [2]: protected ischemic cardiac tissue

Compound: COc1ccc(Cl)cc1C(=O)NCCc1ccc(S(=O)(=O)NC(=O)NC2CCCCC2)cc1 [Glyburide]
- reversal of the cardioprotective effect of zofenopril-SH ([3]; 1 µM glyburide with 400 µM zofenopril-SH (Fig. 2a, 2b)): reverses the cardioprotective effect
- reversal of the protective effect of N-acetylcysteine ([3]; 1 µM glyburide with N-acetylcysteine (Fig. 3a, 3b)): reversed
- end diastolic pressure (EDP) [3, 5]: increase
- cumulative LDH release [3, 6]: increase
- reversal of the effects of penicillamine on double product and LDH release ([3]; glyburide with penicillamine (Fig. 4a, 4b)): partially reversed

Compound: CCCCCC(O)CCCC(=O)[O-].[Na+] (stereo not shown) [sodium-5-hydroxy-decanoate, sodium 5-hydroxydecanoate]
- end diastolic pressure (EDP) [3, 5]: increase
- cumulative LDH release [3, 6]: increase

Compound: C[C@H](CS)C(=O)N1C[C@@H](Sc2ccccc2)C[C@H]1C(=O)O [free-SH form of zofenopril]
- cardioprotective effect (EDP and cumulative LDH release) ([3]; 400 µM zofenopril-SH, 30 minutes into reperfusion following 25 minutes of global ischemia (Fig. 2a, 2b)): cardioprotective effect

Compound: CC(C)(S)[C@@H](N)C(=O)O [Penicillamine]
- protection of cardiac tissue ([3]; penicillamine (Fig. 4a, 4b)): protects cardiac tissue
- LDH release ([3]; penicillamine (Fig. 4b)): significantly reduced
- reperfusion double product ([3]; penicillamine, HR x LVDP divided by 1000 (Fig. 4a)): significantly improved

Compound: C[C@H](CSC(=O)c1ccccc1)C(=O)N1C[C@@H](Sc2ccccc2)C[C@H]1C(=O)O [Zofenopril]
- end diastolic pressure (EDP) ([3]; 100 µM zofenopril, 30 minutes into reperfusion following 25 minutes of global ischemia (Fig. 1a)): significantly reduced
- cumulative LDH release ([3]; 100 µM zofenopril, 30 minutes into reperfusion following 25 minutes of global ischemia (Fig. 1b)): significantly reduced
- EC50 ([1]; concentration ratio 3:1 cromakalim to zofenopril, zofenopril component): 0.128 µM
- EC50 ([1]; concentration ratio 12:1 cromakalim to zofenopril, zofenopril component): 0.48 µM
- EC50 ([1]; concentration ratio 30:1 cromakalim to zofenopril, zofenopril component): 0.29 µM
- EC50 [1, 4]: 75 µM
